In PMC9680877 (ACS Chemical Biology, 2022):

Key:
Type in all cases: binding
TRIM11 = target: T1, TRIM11 (Homo sapiens, UniProt Q96F44); test: dose-response competition pulldown with MS readout
T1 sequence (Q96F44 1-468): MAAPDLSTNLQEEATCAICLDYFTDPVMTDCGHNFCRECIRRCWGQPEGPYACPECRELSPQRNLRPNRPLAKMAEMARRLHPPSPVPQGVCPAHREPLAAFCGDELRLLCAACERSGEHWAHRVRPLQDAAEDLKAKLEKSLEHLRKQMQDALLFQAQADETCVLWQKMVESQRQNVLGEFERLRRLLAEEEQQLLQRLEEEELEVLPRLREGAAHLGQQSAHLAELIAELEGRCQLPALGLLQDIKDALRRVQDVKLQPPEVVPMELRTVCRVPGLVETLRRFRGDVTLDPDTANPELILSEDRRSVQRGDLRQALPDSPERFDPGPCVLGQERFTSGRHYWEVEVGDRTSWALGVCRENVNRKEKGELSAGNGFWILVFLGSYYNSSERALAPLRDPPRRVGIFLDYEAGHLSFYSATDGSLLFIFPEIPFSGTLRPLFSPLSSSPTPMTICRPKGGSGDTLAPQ

GATA1 = GATA1 (Homo sapiens, UniProt P15976); test: dose-response competition pulldown with MS readout
GATA2 = target: T2, GATA2 (Homo sapiens, UniProt P23769); test: dose-response competition pulldown with MS readout
T2 sequence (P23769 1-480): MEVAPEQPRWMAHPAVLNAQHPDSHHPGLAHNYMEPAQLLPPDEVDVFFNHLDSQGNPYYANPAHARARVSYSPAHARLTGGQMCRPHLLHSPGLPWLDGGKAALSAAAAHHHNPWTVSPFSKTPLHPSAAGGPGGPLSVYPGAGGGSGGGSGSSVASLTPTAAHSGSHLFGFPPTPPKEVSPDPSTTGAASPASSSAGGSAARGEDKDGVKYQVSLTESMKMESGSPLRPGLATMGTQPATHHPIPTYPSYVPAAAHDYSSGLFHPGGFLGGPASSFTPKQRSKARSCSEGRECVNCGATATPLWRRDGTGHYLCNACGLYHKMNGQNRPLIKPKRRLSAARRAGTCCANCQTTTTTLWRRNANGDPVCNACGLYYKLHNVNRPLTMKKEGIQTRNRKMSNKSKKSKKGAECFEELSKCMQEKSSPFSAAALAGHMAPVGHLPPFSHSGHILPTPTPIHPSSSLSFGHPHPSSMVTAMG

UBAP2L = target: T3, UBAP2L (Homo sapiens, UniProt Q14157); test: dose-response competition pulldown with MS readout
T3 sequence (Q14157 1-1087): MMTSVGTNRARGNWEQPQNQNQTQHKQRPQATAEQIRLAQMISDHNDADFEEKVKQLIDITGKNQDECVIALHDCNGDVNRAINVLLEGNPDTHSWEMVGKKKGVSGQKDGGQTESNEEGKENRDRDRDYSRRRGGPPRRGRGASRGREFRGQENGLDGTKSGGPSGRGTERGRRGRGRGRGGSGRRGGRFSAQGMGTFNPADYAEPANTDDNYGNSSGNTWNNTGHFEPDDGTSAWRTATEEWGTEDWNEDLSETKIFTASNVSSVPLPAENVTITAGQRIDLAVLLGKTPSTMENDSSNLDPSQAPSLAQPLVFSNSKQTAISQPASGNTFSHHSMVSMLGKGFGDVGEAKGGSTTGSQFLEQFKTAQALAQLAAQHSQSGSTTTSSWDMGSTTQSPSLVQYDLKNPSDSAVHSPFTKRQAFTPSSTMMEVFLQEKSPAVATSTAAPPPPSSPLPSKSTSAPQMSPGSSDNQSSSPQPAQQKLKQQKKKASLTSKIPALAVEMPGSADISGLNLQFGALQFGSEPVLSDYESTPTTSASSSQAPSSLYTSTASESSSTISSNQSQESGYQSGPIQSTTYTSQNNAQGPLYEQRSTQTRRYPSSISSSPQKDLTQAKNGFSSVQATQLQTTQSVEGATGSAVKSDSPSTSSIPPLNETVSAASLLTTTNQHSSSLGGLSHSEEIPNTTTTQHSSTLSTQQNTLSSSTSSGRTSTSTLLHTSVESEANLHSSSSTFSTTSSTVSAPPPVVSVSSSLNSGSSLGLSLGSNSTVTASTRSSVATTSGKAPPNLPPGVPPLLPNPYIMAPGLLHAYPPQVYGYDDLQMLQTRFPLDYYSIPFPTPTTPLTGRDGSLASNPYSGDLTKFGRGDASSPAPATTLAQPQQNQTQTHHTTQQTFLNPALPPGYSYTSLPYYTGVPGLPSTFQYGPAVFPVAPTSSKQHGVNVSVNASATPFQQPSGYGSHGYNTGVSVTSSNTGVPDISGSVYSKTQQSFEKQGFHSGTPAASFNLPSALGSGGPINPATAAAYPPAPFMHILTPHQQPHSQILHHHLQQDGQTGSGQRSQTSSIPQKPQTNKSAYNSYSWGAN

TCF3 = target: T4, TCF3 (Homo sapiens, UniProt P15923); test: dose-response competition pulldown with MS readout
T4 sequence (P15923 1-654): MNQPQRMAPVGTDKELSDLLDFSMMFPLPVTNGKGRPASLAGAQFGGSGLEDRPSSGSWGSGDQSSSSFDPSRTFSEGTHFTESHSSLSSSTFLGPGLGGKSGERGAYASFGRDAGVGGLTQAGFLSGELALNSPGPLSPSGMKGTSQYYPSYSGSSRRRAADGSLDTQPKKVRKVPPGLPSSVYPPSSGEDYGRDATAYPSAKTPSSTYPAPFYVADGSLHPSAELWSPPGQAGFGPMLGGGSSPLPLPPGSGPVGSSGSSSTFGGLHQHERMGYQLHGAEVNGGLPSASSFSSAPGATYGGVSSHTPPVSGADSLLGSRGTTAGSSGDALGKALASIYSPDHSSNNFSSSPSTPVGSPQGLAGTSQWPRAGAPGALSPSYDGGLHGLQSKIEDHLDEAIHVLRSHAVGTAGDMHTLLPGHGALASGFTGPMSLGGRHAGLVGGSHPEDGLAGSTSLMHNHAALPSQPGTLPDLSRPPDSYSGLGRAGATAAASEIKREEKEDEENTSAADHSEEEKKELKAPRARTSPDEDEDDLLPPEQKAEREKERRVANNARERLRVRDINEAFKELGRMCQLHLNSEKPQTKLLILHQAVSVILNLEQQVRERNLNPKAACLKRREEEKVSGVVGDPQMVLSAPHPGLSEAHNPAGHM

OTUD4 = target: T5, OTUD4 (Homo sapiens, UniProt Q01804); test: dose-response competition pulldown with MS readout
T5 sequence (Q01804 1-1114): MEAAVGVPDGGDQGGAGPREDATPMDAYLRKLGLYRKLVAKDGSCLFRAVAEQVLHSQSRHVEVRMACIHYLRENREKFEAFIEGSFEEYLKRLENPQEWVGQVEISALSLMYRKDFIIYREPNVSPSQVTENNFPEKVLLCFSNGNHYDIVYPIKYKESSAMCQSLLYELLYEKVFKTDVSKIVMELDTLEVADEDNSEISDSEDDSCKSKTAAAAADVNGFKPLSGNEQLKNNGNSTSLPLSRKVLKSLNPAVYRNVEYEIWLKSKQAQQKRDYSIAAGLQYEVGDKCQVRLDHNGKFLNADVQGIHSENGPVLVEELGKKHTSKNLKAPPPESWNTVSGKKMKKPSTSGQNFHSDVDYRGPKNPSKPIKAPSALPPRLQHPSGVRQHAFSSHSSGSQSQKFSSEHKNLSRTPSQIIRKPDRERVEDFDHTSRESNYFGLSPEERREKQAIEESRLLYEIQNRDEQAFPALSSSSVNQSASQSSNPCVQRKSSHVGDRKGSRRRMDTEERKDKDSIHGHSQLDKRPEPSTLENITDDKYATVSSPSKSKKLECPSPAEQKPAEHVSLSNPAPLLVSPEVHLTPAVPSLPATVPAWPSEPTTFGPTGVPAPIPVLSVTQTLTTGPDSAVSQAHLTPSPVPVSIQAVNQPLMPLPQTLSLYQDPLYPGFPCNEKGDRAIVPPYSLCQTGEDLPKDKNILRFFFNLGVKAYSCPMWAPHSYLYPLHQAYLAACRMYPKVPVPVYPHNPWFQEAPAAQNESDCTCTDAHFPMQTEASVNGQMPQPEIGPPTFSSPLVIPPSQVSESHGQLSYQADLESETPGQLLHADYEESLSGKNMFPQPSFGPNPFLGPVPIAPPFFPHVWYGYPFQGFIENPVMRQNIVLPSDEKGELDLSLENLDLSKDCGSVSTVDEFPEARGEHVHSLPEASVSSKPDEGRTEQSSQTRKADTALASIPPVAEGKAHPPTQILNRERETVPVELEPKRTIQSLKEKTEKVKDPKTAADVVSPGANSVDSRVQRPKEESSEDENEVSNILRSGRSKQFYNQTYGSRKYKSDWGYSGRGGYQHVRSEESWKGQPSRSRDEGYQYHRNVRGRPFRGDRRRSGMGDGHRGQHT

MED15 = target: T6, MED15 (Homo sapiens, UniProt Q96RN5); test: dose-response competition pulldown with MS readout
T6 sequence (Q96RN5 1-788): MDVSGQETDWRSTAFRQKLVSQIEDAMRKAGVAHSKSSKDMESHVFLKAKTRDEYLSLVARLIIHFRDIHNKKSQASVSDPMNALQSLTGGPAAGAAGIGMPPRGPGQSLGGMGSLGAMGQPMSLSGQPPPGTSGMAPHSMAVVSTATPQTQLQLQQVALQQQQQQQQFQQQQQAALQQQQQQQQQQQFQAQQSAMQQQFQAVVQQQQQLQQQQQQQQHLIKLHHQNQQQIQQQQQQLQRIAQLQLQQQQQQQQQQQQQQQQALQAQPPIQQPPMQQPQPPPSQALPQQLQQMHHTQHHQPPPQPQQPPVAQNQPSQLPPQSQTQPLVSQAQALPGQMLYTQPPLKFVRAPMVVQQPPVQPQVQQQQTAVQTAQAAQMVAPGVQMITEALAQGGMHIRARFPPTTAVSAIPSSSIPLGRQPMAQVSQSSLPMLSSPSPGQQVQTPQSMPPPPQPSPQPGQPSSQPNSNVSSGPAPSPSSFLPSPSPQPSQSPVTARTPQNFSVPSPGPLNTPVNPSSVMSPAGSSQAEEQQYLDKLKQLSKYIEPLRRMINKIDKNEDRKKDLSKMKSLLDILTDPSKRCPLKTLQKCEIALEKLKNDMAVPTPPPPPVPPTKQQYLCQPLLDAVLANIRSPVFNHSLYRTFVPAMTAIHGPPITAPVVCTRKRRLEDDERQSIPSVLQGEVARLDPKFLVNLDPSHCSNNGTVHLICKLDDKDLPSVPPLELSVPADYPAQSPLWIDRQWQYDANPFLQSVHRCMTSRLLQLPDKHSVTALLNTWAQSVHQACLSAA

CNOT1 = CNOT1 (Homo sapiens, UniProt A5YKK6); test: dose-response competition pulldown with MS readout; conditions: SW-620 lysate; free FAD vs photo-immobilized FAD beads
kinases = test: Kinobeads profiling; conditions: latest version of Kinobeads, without immobilized staurosporine

Sequence of CNOT1 (A5YKK6 whole entry): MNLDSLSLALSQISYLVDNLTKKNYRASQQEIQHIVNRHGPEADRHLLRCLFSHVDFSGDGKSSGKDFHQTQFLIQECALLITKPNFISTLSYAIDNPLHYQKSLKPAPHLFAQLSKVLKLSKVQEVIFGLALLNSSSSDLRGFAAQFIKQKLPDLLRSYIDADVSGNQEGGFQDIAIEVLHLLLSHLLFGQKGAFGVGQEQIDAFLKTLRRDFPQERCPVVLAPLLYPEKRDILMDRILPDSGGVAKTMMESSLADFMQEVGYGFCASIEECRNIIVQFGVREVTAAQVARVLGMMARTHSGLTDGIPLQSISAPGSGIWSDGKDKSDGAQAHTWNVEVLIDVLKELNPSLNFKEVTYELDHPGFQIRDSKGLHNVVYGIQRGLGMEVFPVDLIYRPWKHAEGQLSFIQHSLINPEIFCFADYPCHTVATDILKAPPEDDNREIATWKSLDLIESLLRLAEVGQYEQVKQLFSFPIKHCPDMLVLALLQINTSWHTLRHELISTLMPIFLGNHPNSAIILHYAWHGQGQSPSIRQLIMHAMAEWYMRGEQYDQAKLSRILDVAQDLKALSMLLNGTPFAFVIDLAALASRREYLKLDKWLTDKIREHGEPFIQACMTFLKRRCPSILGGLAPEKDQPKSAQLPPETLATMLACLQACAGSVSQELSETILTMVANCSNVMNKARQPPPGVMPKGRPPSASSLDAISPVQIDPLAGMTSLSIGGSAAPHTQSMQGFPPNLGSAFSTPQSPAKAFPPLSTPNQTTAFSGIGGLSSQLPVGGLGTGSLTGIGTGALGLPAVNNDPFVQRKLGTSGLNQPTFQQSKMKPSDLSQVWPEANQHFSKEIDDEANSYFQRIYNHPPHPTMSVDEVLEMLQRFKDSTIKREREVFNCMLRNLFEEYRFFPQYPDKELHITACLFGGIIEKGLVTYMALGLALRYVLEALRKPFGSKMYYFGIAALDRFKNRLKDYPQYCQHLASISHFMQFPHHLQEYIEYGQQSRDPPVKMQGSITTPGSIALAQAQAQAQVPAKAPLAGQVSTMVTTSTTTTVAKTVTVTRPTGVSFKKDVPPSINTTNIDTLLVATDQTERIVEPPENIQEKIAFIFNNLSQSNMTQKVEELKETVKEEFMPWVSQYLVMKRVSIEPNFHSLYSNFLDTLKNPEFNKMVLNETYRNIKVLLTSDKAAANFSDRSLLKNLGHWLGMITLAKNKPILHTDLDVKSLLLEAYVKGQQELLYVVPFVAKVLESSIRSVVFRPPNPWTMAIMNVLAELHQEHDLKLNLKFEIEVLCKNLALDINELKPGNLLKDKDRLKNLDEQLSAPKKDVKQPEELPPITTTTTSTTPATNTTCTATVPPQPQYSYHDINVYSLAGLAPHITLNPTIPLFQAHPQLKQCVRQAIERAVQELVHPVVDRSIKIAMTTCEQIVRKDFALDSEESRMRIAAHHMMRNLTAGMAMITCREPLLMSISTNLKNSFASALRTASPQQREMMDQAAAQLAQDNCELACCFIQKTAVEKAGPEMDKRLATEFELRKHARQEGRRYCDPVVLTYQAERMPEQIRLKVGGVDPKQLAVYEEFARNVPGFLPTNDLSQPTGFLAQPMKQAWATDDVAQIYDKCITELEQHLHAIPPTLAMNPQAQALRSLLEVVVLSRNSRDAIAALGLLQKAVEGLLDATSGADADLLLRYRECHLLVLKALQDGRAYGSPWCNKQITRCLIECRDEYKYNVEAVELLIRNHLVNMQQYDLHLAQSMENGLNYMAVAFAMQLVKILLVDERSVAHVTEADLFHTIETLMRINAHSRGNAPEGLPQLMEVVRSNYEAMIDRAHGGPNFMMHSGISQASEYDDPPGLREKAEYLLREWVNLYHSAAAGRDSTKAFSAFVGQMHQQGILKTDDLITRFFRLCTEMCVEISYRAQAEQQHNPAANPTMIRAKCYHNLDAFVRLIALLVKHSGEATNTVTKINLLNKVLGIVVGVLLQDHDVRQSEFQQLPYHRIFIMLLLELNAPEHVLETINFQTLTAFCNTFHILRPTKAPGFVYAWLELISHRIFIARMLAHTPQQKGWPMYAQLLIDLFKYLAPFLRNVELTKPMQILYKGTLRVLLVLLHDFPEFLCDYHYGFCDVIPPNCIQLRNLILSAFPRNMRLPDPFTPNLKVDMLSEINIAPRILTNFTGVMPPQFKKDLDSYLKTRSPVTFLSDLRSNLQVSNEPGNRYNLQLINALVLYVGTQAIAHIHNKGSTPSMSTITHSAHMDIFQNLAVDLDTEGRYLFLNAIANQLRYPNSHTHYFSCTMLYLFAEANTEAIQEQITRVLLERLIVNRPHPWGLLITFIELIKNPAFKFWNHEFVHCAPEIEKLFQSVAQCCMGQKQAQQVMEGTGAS
Sequence of GATA1 (P15976 whole entry): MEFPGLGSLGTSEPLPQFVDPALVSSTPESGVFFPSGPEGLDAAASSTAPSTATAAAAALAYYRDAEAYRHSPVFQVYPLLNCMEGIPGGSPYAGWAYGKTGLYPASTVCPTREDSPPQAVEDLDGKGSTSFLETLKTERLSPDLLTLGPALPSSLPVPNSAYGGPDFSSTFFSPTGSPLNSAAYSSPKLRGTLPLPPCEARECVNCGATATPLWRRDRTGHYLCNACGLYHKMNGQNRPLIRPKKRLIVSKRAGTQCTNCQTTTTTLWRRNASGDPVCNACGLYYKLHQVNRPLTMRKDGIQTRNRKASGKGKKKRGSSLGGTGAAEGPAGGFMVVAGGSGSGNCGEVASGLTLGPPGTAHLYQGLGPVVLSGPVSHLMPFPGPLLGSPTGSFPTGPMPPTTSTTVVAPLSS

Kd (TRIM11)	Kd (GATA1)	Kd (GATA2)	Kd (UBAP2L)	Kd (TCF3)	Kd (OTUD4)	Kd (MED15)	CNOT1 bound by the matrix but not competed up to (CNOT1)	Structure (SMILES)	number of kinase targets with affinities below 10 μM (kinases)
186 nM	20 nM	7 nM	36 nM	78 nM	11 nM	14 nM	> 100 µM	Cc1cc2nc3c(=O)[nH]c(=O)nc-3n(C[C@H](O)[C@H](O)[C@H](O)COP(=O)(O)OP(=O)(O)OC[C@H]3O[C@@H](n4cnc5c(N)ncnc54)[C@H](O)[C@@H]3O)c2cc1C [FAD, flavin adenine dinucleotide]	–
–	–	–	–	–	–	–	–	CN[C@@H]1C[C@H]2O[C@@](C)([C@@H]1OC)n1c3ccccc3c3c4c(c5c6ccccc6n2c5c31)C(=O)NC4 [Staurosporine]	94
